# Test results reported in patent US7858650B2, “Medicinal composition for inhalation” (Ono Pharmaceutical Co., Ltd., priority 2004, dated 2010).
# How the values were obtained:
# Type in all cases: in vivo
# [1] = system: histamine-induced airway contractile response; assay: Inhibitory activity on histamine-induced airway contractile response and hypotensive activity, intravenous or inhalation administration; settings: anesthetized guinea pig, histamine 10 μg/kg i.v.; inhalation (5 minutes, nebulizer) versus intravenous administration; FIG. 1
# Description: (1) Inhibitory Activity on Histamine-Induced Airway Contractile Response and Hypotensive Activity of Intravenous Administration or Inhalation Administration in Guinea Pig
# A guinea pig anesthetized with sodium pentobarbital (75 mg/kg, i.p.) was treated with gallamine (10 mg/kg, i.v.), and an experiment was carried out under artificial respiration. As an airway contraction inducing substance, histamine (10 μg/kg, i.v.) was used, and the airway contractile response was determined by the Konzett & Roessler method (Konzett, H., Roessler, R. Versuchsanordnung zu untersuchungen ander Bronchial-muskulatur. Arch Exp Pathol Pharmacol 1940; 195:71-74). Additionally, the blood pressure was also measured at the same time. A test substance was administered intravenously or by inhalation (the test substance or a physiological saline solution was atomized using an ultrasonic nebulizer and inhaled directly into the trachea for 5 minutes using an artificial respirator). An inhibition ratio of airway contraction (%) was calculated by taking the airway contraction induced by histamine before administration of the test substance or in a group administered with a physiological saline solution as 0% inhibition. The amount of blood pressure reduction (mmHg) was expressed as the amount of diastolic blood pressure reduction. […] From this, it was shown that the pharmaceutical composition for inhalation of the present invention has an inhibitory effect on airway contraction and its hypotensive effect is small.
# [2] = system: methacholine-induced airway contractile response; assay: Effect of intratracheal administration on methacholine-induced airway contractile response; settings: guinea pig, methacholine 10 μg/kg i.v.
# Description: (2) Effect of Compound of the Present Invention by Intratracheal Administration on Methacholine-Induced Airway Contractile Response in Guinea Pig
# A test substance was intratracheally administered to a guinea pig anesthetized with GOI (laughing gas:oxygen=3:1, 3% isoflurane) using a tube for intratracheal administration. After a certain period of time, the guinea pig was anesthetized with sodium pentobarbital (50 mg/kg, i.p.) and treated with gallamine (10 mg/kg, i.v.). Then, the resulting airway contractile response was determined under artificial respiration. As an airway contraction inducing substance, methacholine (10 μg/kg, i.v.) was used, and the airway contractile response was determined by the Konzett & Roessler method. A ratio of airway contraction (% of maximum) was calculated by taking the airway response obtained by closing a three-way stopcock attached to an upper part of a cannula inserted into the tracheal tube of the guinea pig as 100%.
# [3] = system: methacholine-induced airway contractile response; assay: Bronchodilator effect of a sustained prodrug of EP2 agonist (methacholine-induced airway contraction, intratracheal); settings: guinea pig, intratracheal administration, methacholine 10 μg/kg i.v., airway contractile response measured for 3 hours; FIGS. 7 and 9
# Description: (§1) (3) Bronchodilator Effect and Hypotensive Effect of a Sustained Prodrug of EP2 Agonist
# (§2) A guinea pig anesthetized with sodium pentobarbital (50 mg/kg, i.p.) was treated with gallamine (10 mg/kg, i.v.), and an experiment was carried out under artificial respiration. As an airway contraction inducing substance, methacholine (10 μg/kg, i.v.) was used, and the airway contractile response was determined by the Konzett & Roessler method. Compound B was dissolved in an equimolar amount of sodium hydroxide and diluted with a physiological saline solution. Compound F was suspended in a physiological saline solution containing 2% ethanol and 10% Tween 80 to prepare a test substance. The test substance was intratracheally administered using a tube for intratracheal administration. After the administration of the test substance, the blood pressure and the airway contractile response were measured for 12.5 minutes and 3 hours, respectively. A ratio of airway contraction (%) was calculated by taking the airway response obtained by closing a three-way stopcock attached to an upper part of a cannula inserted into the tracheal tube of the guinea pig as 100% contraction. The amount of blood pressure reduction (mmHg) was expressed based on the blood pressure before administration of the test substance.
# [4] = Hypotensive effect of a sustained prodrug of EP2 agonist (blood pressure after intratracheal administration); settings: guinea pig, blood pressure measured for 12.5 minutes after administration, FIGS. 6 and 8
# Description: as §1, §2
Structure (SMILES),dissociation between the inhibitory effect on airway contraction and the hypotensive effect [1],"duration of activity (bronchodilator effect), comparison ([2]; FIGS. 2 to 5)",also measured
"CCC1([C@@H](O)C/C=C/[C@H]2CCC(=O)N2CCSc2nc(C(=O)O)cs2)CCC1 [Compound A, 2-[(2-{(2R)-2-[(1E,4S)-4-(1-ethylcyclobutyl)-4-hydroxybut-1-enyl]-5-oxopyrrolidin-1-yl}ethyl)sulfanyl]-1,3-thiazole-4-carboxylic acid]",became larger by inhalation administration than by intravenous administration,–,–
"O=C(O)c1csc(SCCN2C(=O)CC[C@@H]2COc2cc(Cl)cc(Cl)c2)n1 [Compound B, 2-[(2-{(2R)-2-[(3,5-dichlorophenoxy)methyl]-5-oxopyrrolidin-1-yl}ethyl)thio]-1,3-thiazole-4-carboxylic acid]",became larger by inhalation administration than by intravenous administration,–,time after administration at which the bronchodilator effect was lost ([2]; FIG. 2): around 3 hours; bronchodilator effect ([2]; FIGS. 2 to 5): has a bronchodilator effect
"O=C(O)c1csc(SCCN2C(=O)CC[C@@H]2COc2cccc(C(F)(F)F)c2Cl)n1 [Compound C, 2-{[2-((2R)-2-{[2-chloro-3-(trifluoromethyl)phenoxy]methyl}-5-oxopyrrolidin-1-yl)ethyl]sulfanyl}-1,3-thiazole-4-carboxylic acid]",became larger by inhalation administration than by intravenous administration,–,–
"O=C(O)c1csc(SCCN2C(=O)CC[C@@H]2COc2cccc(OC(F)(F)F)c2)n1 [Compound D, 2-{[2-((5R)-2-oxo-5-{[3-(trifluoromethoxy)phenoxy]methyl}pyrrolidin-1-yl)ethyl]sulfanyl}-1,3-thiazole-4-carboxylic acid]",became larger by inhalation administration than by intravenous administration,–,–
"CCCCOC(=O)c1csc(SCCN2C(=O)CC[C@@H]2COc2cc(Cl)cc(Cl)c2)n1 [Compound E, butyl 2-[(2-{(2R)-2-[(3,5-dichlorophenoxy)methyl]-5-oxopyrrolidin-1-yl}ethyl)thio]-1,3-thiazole-4-carboxylate]",–,more prolonged duration of activity compared with Compound B,–
"CCCCCCCCCCCOC(=O)c1csc(SCCN2C(=O)CC[C@@H]2COc2cc(Cl)cc(Cl)c2)n1 [Compound F, undecyl 2-[(2-{(2R)-2-[(3,5-dichlorophenoxy)methyl]-5-oxopyrrolidin-1-yl}ethyl)sulfanyl]-1,3-thiazole-4-carboxylate]",–,more prolonged duration of activity compared with Compound F,"duration of bronchodilator activity, comparison [3]: prolonged duration of bronchodilator activity compared with Compound B; change of blood pressure (hypotensive effect) [4]: did not change the blood pressure"
"O=C(OCCCCCCCCCCc1ccccc1)c1csc(SCCN2C(=O)CC[C@@H]2COc2cc(Cl)cc(Cl)c2)n1 [Compound G, 10-phenyldecyl 2-[(2-{(2R)-2-[(3,5-dichlorophenoxy)methyl]-5-oxopyrrolidin-1-yl}ethyl)sulfanyl]-1,3-thiazole-4-carboxylate]",–,more prolonged duration of activity compared with Compound F,–
